System: low-density lipoproteins
Assay: not given
Conditions: cited from earlier work

| SMILES | protection of low-density lipoproteins against oxidation |
| --- | --- |
| C[C@@H]1O[C@@H](OC[C@H]2O[C@@H](Oc3c(-c4ccc(O)c(O)c4)oc4cc(O)cc(O)c4c3=O)[C@H](O)[C@@H](O)[C@@H]2O)[C@H](O)[C@H](O)[C@H]1O [rutin, reference compound] | protect low-density lipoproteins against oxidation |
| Oc1cc(O)c2c(c1)O[C@H](c1ccc(O)c(O)c1)[C@H](O)C2 [epicatechin, reference compound] | protect low-density lipoproteins against oxidation |
| Oc1ccc(/C=C/c2cc(O)cc(O)c2)cc1 [trans-resveratrol] | protect low-density lipoproteins against oxidation |
| Oc1ccc(/C=C\c2cc(O)cc(O)c2)cc1 [cis-resveratrol] | protect low-density lipoproteins against oxidation |
| OC[C@H]1O[C@@H](Oc2cc(O)cc(/C=C\c3ccc(O)cc3)c2)[C@H](O)[C@@H](O)[C@@H]1O [cis-resveratrol glucoside] | protect low-density lipoproteins against oxidation |
| OC[C@H]1O[C@@H](Oc2cc(O)cc(/C=C/c3ccc(O)cc3)c2)[C@H](O)[C@@H](O)[C@@H]1O [trans-resveratrol glucoside] | protect low-density lipoproteins against oxidation |
| Oc1cc(O)c2c(c1)OC(c1ccc(O)c(O)c1)C(O)C2 (stereo not drawn) [catechin, reference compound] | protect low-density lipoproteins against oxidation |
| O=c1c(O)c(-c2ccc(O)c(O)c2)oc2cc(O)cc(O)c12 [quercetin, reference compound] | protect low-density lipoproteins against oxidation |

System: common iliac artery of high cholesteric rabbits
Assay: Restenosis/thrombus model: balloon injury of common iliac artery in high cholesteric rabbits, local administration, angioscopy
Format: in vivo, rabbit
Conditions: after one month; trans-resveratrol + heparin (1:100) compared with heparin only, P<0.05
Procedure: The procedure of U.S. Pat. No. 5,595,974 to Tomaru may be used to evaluate the utility of trans-resveratrol in preventing restenosis in high cholestereric rabbits, as follows:
An injectable trans-resveratrol solution is prepared containing the following components: 10 mg trans-resveratrol; 3 mg chlorobutanol (preservative); 0.1 mg gelatin hydrolyzate (stabilizer); 9 mg sodium chloride (isotonic agent); and distilled water containing 2% dimethyl sulfoxide ("DMSO") for injection (to 1 mL).
Common iliac arteries of high cholesteric rabbits to which a diet containing 2% of cholesterol is loaded for a month are used as a model for restenosis, wherein the model consists of (1) a heparin group with seven male rabbits and (2) trans-resveratrol solution combined with th seven male rabbits, weighing between 2.5 kg and 3 kg, respectively. […]
Post-operatively, the percent luminal obstruction (%) of both the control side and the drug administered side are compared by continuing the load of high cholesterol for one month. That is, effects for preventing stenosis by local administration of trans-resveratrol is evaluated by angioscopic visualization after one month from vascular injury to compare the percent luminal obstruction (%) caused by intima pachymenia.
The percent luminal obstruction (%) is calculated by the following equation: […]

| SMILES | percent luminal obstruction (%) |
| --- | --- |
| Oc1ccc(/C=C/c2cc(O)cc(O)c2)cc1 [trans-resveratrol] | remarkably reduced percent luminal obstruction (%) |

Source: patent publication US6022901A, “Administration of resveratrol to prevent or treat restenosis following coronary intervention” (priority 1998, dated 2000)
